Data: US11395798B2, “O/W type emulsion” (NOF CORPORATION, priority 2015, dated 2022)
“Also recorded” adds a separate entry of the source. Each block holds one compound with its values, some of them ahead of it.

Tests used:
[1] = particle size distribution by dynamic light scattering (Zetasizer Nano ZS); assay type: physicochemical
Experimental: The particle size distribution of the prepared emulsion was measured by dynamic light scattering using Zetasizer Nano ZS. The measurement conditions were 1 mM emulsion (40 μL) at 25° C. As a result, in all compositions, the volume median diameter was not more than 100 nm and, when a linear head was used (i.e., the formula (I) wherein X^a and X^b are each X^1), the particle size was not more than 50 nm. The drug recovery rate was not less than 85% (FIG. 1, Table 2).
EPC and Cholesterol were mixed to achieve 1000 nmol and a PEG lipid was added. Chloroform in an amount equal to that of the lipid ethanol solution was added and the mixture was dried under a nitrogen blow. PBS (1 mL) was added to the lipid membrane after drying and the mixture was stood for 10 min and sonicated by a bath-type sonicator for 3 min to give a particle suspension. The particle size distribution of the prepared particles was measured by dynamic light scattering in the same manner as in Example 1.
The particle size distribution of the produced emulsion solution was measured by dynamic light scattering similarly to Example 1. As a result, when DOPC was used, the volume median diameter was near 40 nm irrespective of pH.
An ethanol solution containing 500 nmol as a total of cationic B-2, DOPE, and Cholesterol was prepared, and a PEG lipid was added in the above-mentioned amount. Ethanol was added to make the total amount 200 μL, and the mixture was stood at ice temperature for 15 min. A similarly ice-cooled malic acid buffer (20 mM, pH 3.0, 0-1000 mM NaCl) (200 μL) was mixed within 3 sec under vortex. PBS (NISSUI) (3600 μL) was immediately added thereto. The mixture was subjected to ultrafiltration using Amicon Ultra (Millipore). The centrifugation conditions were 1000 G, 25° C. An operation including addition of 3200 μL of PBS after centrifugation for 10 min was repeated twice and the sample was concentrated to about 500 μL. The concentrate was diluted with PBS to a mass of 1000 mg to give a 0.5 mM (lipid concentration) emulsion. The particle size distribution of the produced emulsion solution was measured by dynamic light scattering similarly to Example 1.
The volume median diameter and the surface potential were measured using the dynamic light scattering (Zetasizer Nano; Malvern) in the same manner as in Example 1.
The average particle size of the produced particles was measured in the same manner as in Example 1 and the results are shown in Table 7.

[2] = organ accumulation of particles in 4T1 tumor-bearing mouse (IVIS); assay type: in vivo, BALB/c mouse; conditions: intravenous, lipid 800 nmol, 24 hr after administration, DiR fluorescence
Experimental: As cationic lipid, B-2 and B-2-5 were used. As conventional lipid, DODAP and EPC were used. The preparation methods of the O/W type emulsion and particle suspensions (DODAP, EPC) followed the methods described in Example 1 and Comparative Example 1. To visualize pharmacokinetics of the oil droplets constituting the O/W type emulsion or particle suspension (DODAP, EPC), fluorescent dye DiR was added by 0.2 mol % of the lipid. The particle concentration was adjusted to 4 mM as a lipid concentration.
As a tumor-bearing mouse, 4T1 cell (mouse breast cancer) was used. 1×10^6 4T1 cells were subcutaneously transplanted to the right flank of BALB/c mouse (♀, 4-week-old). At 7 days from the transplantation, 200 μL (lipid 800 nmol) of the O/W type emulsion or particle suspension (DODAP, EPC) containing fluorescence-modified particles was intravenously administered. At 24 hr after administration, […] was performed, and the spleen, liver and tumor were collected and image was obtained by IVIS. The average fluorescence intensity was calculated using Living Image Software.
As a cationic lipid, B-2 was used. An O/W type emulsion was prepared according to Example 3. In this preparation, 4-Methylumbelliferon (10 mol %) was used as a model drug and DMG-PEG2000 (10 mol %) and DSG-PEG2000 (2.5 mol %) were used as PEG lipids, and a 4.0 mM (based on lipid concentration) emulsion was prepared. To visualize pharmacokinetics of the oil droplets constituting the O/W type emulsion or particle suspension (DODAP, EPC), fluorescent dye DiR was added by 0.2 mol % of the lipid. As the salt (NaCl) concentration during preparation of particles, 30 mM, 150 mM, 750 mM were selected and taken as “Small”, “Medium”, “Large”, respectively. The particle concentration was adjusted to 4 mM as a lipid concentration.
The organ distribution in a tumor-bearing mouse was evaluated in the same manner as in Experimental Example 1. As a result, accumulation in the spleen, liver decreased as the particle size became smaller.

[3] = DexPal-carrying rate by high performance liquid chromatography; assay type: physicochemical; conditions: DexPal-carrying LNP
Experimental: 1 mM DexPal-carrying LNP (50 μL) was mixed with phosphate buffer (pH 7.4) (50 μL), and 50 μL thereof was mixed with MeOH (50 μL). 0.1% Trifluoroacetic acid/acetonitrile (400 μL) was added, and DexPal was detected by high performance liquid chromatography (column: InertSustain C18, 5 μm, 4.6 mm×250 mm (GL Sciences Inc.), mobile phase: MeOH:0.1% trifluoroacetic acid/acetonitrile=70:30, flow rate: 1 mL/min, detector: 240 nm, injection volume: 200 μL). As the analytical curve of Dex-Pal, 0.5 mM, 0.25 mM, 0.125 mM, 0.0625 mM, DexPalethanol solution (50 μL) was mixed with MeOH (50 μL), and 50 μL thereof was mixed with phosphate buffer (pH 7.4) (50 μL). 0.1% Trifluoroacetic acid/acetonitrile (400 μL) was added, and DexPal was detected by a method similar to that for DexPal-carrying LNP. The peak area and concentration were plotted, and the DexPal concentration and carrying rate in the DexPal-carrying LNP were calculated.

[4] = O/W emulsion cationic lipid:DOPE:Cholesterol=3:4:3, 4-Methylumbelliferon 10 mol %, DMG-PEG2000 10 mol %, DSG-PEG2000 2.5 mol %
[5] = O/W emulsion cationic lipid:DOPE:Cholesterol=3:4:3, 4-Methylumbelliferon 10 mol %, DMG-PEG2000 10 mol %, DSG-PEG2000 2.5 mol %, 1 mM, 25° C.
[6] = B-2:helper lipid:Cholesterol=3:4:3, 15 mol % DMG-PEG2000, malic acid buffer pH 4.0
[7] = B-2:helper lipid:Cholesterol=3:4:3, 15 mol % DMG-PEG2000, pH 3.0
[8] = B-2:helper lipid:Cholesterol=3:4:3, 15 mol % DMG-PEG2000, pH 4.0

SMILES: Cc1c(C)c2c(c(C)c1OC(=O)CCC(=O)OCCCN(C)CCSSCCN(C)CCCOC(=O)CCC(=O)Oc1c(C)c(C)c3c(c1C)CCC(C)(CCCC(C)CCCC(C)CCCC(C)C)O3)CCC(C)(CCCC(C)CCCC(C)CCCC(C)C)O2 (centres unmarked) [B-2-5]
PdI [1, 4]: 0.164 | volume median diameter [1, 5]: 41.2 nm | accumulation in the liver [2]: superior in accumulation in the liver; also recorded: found

SMILES: CCCCCCCCCCCCCC(=O)OCCCN(C)CCSSCCN(C)CCCOC(=O)CCCCCCCCCCCCC [B-2]
volume median diameter ([1]; B-2:DOPE:Cholesterol=3:4:3, 15 mol % DMG-PEG2000, NaCl concentration of 60 mM or below at preparation): 30-50 nm | volume median diameter ([1]; B-2:DOPE:Cholesterol=3:4:3, 15 mol % DMG-PEG2000, salt concentration of 500 mM or below at preparation): ≤ 100 nm | PdI ([1]; DexPal-carrying particles): 0.15 ± 0.01 | volume median diameter ([1]; DexPal-carrying particles (lipid, DOPC, Chol, DMG-PEG2000, DSG-PEG2000, DexPal)): 41.4 ± 0.7 nm·days | PdI [1, 4]: 0.465 | volume median diameter [1, 5]: 37.6 nm | carrying rate [3]: 90.6 ± 5.2% | transfer into tumor [2]: transfer well into tumor

SMILES: CCCCCCCC/C=C\CCCCCCCC(=O)OC[C@H](COP(=O)([O-])OCC[N+](C)(C)C)OC(=O)CCCCCCC/C=C\CCCCCCCC [DOPC, dioleoylphosphatidylcholine]
volume median diameter ([1]; B-2:helper lipid:Cholesterol=3:4:3, 15 mol % DMG-PEG2000, malic acid buffer pH 3.0): 41.5 nm | volume median diameter [1, 6]: 40.5 nm | volume median diameter ([1]; B-2:helper lipid:Cholesterol=3:4:3, 15 mol % DMG-PEG2000, malic acid buffer pH 5.0): 45.6 nm | PdI [1, 7]: 0.319 | PdI [1, 8]: 0.214 | PdI ([1]; B-2:helper lipid:Cholesterol=3:4:3, 15 mol % DMG-PEG2000, pH 5.0): 0.196 | volume median diameter ([1]; B-2:helper lipid:Cholesterol=3:4:3, irrespective of pH (3.0-5.0)): about 40 nm

SMILES: Cc1c(C)c2c(c(C)c1OC(=O)CCC(=O)OCCC1CCN(CCSSCCN3CCC(CCOC(=O)CCC(=O)Oc4c(C)c(C)c5c(c4C)CCC(C)(CCCC(C)CCCC(C)CCCC(C)C)O5)CC3)CC1)CCC(C)(CCCC(C)CCCC(C)CCCC(C)C)O2 (centres unmarked) [TS-P4C2]
PdI [1, 4]: 0.063 | volume median diameter [1, 5]: 87.9 nm

More lines, now with the values ahead:

PdI [1, 4]: 0.419 | volume median diameter [1, 5]: 34.3 nm
SMILES: CCCCC/C=C\C/C=C\CCCCCCCC(=O)OCCCN(C)CCSSCCN(C)CCCOC(=O)CCCCCCC/C=C\C/C=C\CCCCC [B-2-3]

volume median diameter [1, 6]: 90.2 nm | PdI [1, 7]: 0.191 | PdI [1, 8]: 0.078
SMILES: CCCCCCCC/C=C\CCCCCCCC(=O)OC[C@H](COP(=O)(O)OCCN)OC(=O)CCCCCCC/C=C\CCCCCCCC [DOPE, dioleoylphosphatidylethanolamine]

PdI [1, 4]: 0.092 | volume median diameter [1, 5]: 75.8 nm
SMILES: CCCCC/C=C\C/C=C\CCCCCCCC(=O)OCCN1CCN(CCSSCCN2CCN(CCOC(=O)CCCCCCC/C=C\C/C=C\CCCCC)CC2)CC1 [L-PZ4C2]

PdI [1, 4]: 0.228 | volume median diameter [1, 5]: 38.4 nm
SMILES: CCCCCCCC/C=C\CCCCCCCC(=O)OCCCN(C)CCSSCCN(C)CCCOC(=O)CCCCCCC/C=C\CCCCCCCC [O-C3M]
